Values of other authors as cited in article PMC8435859 (Frontiers in Cellular and Infection Microbiology, 2021).

Key:
hepatitis B virus (HBV) = system: hepatitis B virus (HBV); parameters: method as in Abdelwahed A, et al. Chem Biol Interact. 2007; settings: at a concentration of 4 microg/ml; library annotation; ref Abdelwahed A, et al. Chem Biol Interact. 2007; cited from earlier work
PGE2 production = system: PGE2 production; parameters: method as in Kim HJ, et al. Arch Pharm Res. 2016 Feb;39(2):231-239.; settings: ref Kim HJ, et al. Arch Pharm Res. 2016 Feb;39(2):231-239.; read-out: IC50, inhibitory effect on PGE2 production; cited from earlier work
B16F10 cell = system: B16F10 cell; parameters: method as in ref Abe F, Nagao T, Okabe H. Biological & Pharmaceutical Bulletin, 2002, 25(7):920-922; settings: ref Abe F, Nagao T, Okabe H. Biological & Pharmaceutical Bulletin, 2002, 25(7):920-922, read-out: GI50 against B16F10 cell; cited from earlier work
T. castaneum adults [1] = system: T. castaneum adults; parameters: method as in Tao J, et al. Zhongguo Zhong Yao Za Zhi. 2011; settings: vendor library annotation, ref Tao J, et al. Zhongguo Zhong Yao Za Zhi. 2011; cited from earlier work
lipase = target: lipase; parameters: method as in Tao J, et al. Zhongguo Zhong Yao Za Zhi. 2011; settings: vendor library annotation, ref Tao J, et al. Zhongguo Zhong Yao Za Zhi. 2011, read-out: IC5 (lipase inhibitory activity); cited from earlier work
T. castaneum adults [2] = system: T. castaneum adults; parameters: method as in Tao J, et al. Zhongguo Zhong Yao Za Zhi. 2011; settings: 0.63 μg/cm, vendor library annotation, ref Tao J, et al. Zhongguo Zhong Yao Za Zhi. 2011; cited from earlier work
β-secretase (BACE1) = target: β-secretase (BACE1); parameters: method as in Murakami, A., et al. Carcinogenesis 21(10), 1843-1850 (2000); settings: ref Murakami, A., et al. Carcinogenesis 21(10), 1843-1850 (2000); cited from earlier work
TRPA1 = system: TRPA1; parameters: method as in López-Jiménez et al., European Journal of Nutrition, 2013; settings: library annotation; ref López-Jiménez et al., European Journal of Nutrition, 2013; read-out: agonist of TRPA1, EC5 value; cited from earlier work
STAT5 = system: STAT5; parameters: method as in Shin DS, et al. Cancer Res, 2009, 69(1), 193-202; settings: ref Shin DS, et al. Cancer Res, 2009, 69(1), 193-202; cited from earlier work
STAT1 = system: STAT1; parameters: method as in Shin DS, et al. Cancer Res, 2009, 69(1), 193-202; settings: ref Shin DS, et al. Cancer Res, 2009, 69(1), 193-202; cited from earlier work
STAT3 = system: STAT3; parameters: method as in Shin DS, et al. Cancer Res, 2009, 69(1), 193-202; settings: cell-free assay; ref Shin DS, et al. Cancer Res, 2009, 69(1), 193-202; cited from earlier work
tyrosinase = target: tyrosinase; parameters: method as in Boissy RE, et al. Exp Dermatol, 2005, 14(8), 601-608; settings: reversible inhibition; ref Boissy RE, et al. Exp Dermatol, 2005, 14(8), 601-608; cited from earlier work
PGE2 release = system: PGE2 release; parameters: method as in ref Huang H et al., Journal of Agricultural and Food Chemistry, 2011; settings: library annotation; ref Huang H et al., Journal of Agricultural and Food Chemistry, 2011; cited from earlier work
aldose reductase = settings: recombinant human aldose reductase; library annotation; ref Huang H et al., Journal of Agricultural and Food Chemistry, 2011; read-out: inhibition of recombinant human aldose reductase, IC5 value; cited from earlier work
seed germination = system: seed germination; parameters: method as in Kim T K, Park K S. Cytokine, 2015, 76(2); settings: at 3 mM concentration; ref Kim T K, Park K S. Cytokine, 2015, 76(2); cited from earlier work
GSK-3β = settings: read-out: IC50, GSK-3β; ref Hoessel R, et al. Nat Cell Biol, 1999, 1(1), 60-67; cited from earlier work
cyclin-dependent kinases = settings: read-out: IC50, cyclin-dependent kinases; ref Hoessel R, et al. Nat Cell Biol, 1999, 1(1), 60-67; cited from earlier work
PTP1B = system: PTP1B; parameters: method as in Xu F, Yang L, Huang X, et al. Mol Divers.; settings: ref Xu F, Yang L, Huang X, et al. Mol Divers.; read-out: IC50, PTP1B inhibition; cited from earlier work
IL-1β = system: IL-1β; parameters: method as in ref Singh B, et al. Natural Product Research, 2013, 27(23):2227-2230.; settings: anti-inflammatory activity; ref Singh B, et al. Natural Product Research, 2013, 27(23):2227-2230.; read-out: IC50, inhibition of IL-1β; cited from earlier work
TNF-α = system: TNF-α; parameters: method as in ref Singh B, et al. Natural Product Research, 2013, 27(23):2227-2230.; settings: anti-inflammatory activity; ref Singh B, et al. Natural Product Research, 2013, 27(23):2227-2230.; read-out: IC50, inhibition of TNF-α; cited from earlier work
fatty acid synthase = system: fatty acid synthase; parameters: method as in Tian, WX. Current Medicinal Chemistry, 2006, 13 (8): 967–977; settings: ref Tian, WX. Current Medicinal Chemistry, 2006, 13 (8): 967–977; cited from earlier work
[3] = system: nuclear factor of activated T cells (NFAT) transcription factor; parameters: method as in Phan, C., et al. Biofactors, 2016; settings: vendor library annotation, ref Phan, C., et al. Biofactors, 2016; cited from earlier work
[4] = target: 6-phosphogluconate dehydrogenase; parameters: method as in Ma X, et al. Pest Manag Sci, 2010, 66(7), 718-724; settings: ref Ma X, et al. Pest Manag Sci, 2010, 66(7), 718-724; cited from earlier work
[5] = target: 6-phosphogluconate dehydrogenase; parameters: method as in Ma X, et al. Pest Manag Sci, 2010, 66(7), 718-724; settings: ref Ma X, et al. Pest Manag Sci, 2010, 66(7), 718-724; cited from earlier work; remark: listed apart in the source
HeLa cells = system: HeLa cells; parameters: method as in Wu ZT, et al. Acta Pharmacol Sin. 2014 Sep;35(9):1188-98; settings: ref Wu ZT, et al. Acta Pharmacol Sin. 2014 Sep;35(9):1188-98, read-out: IC50, autophagy followed by apoptotic cell death; cited from earlier work
BT474 cells = system: BT474 cells; parameters: method as in Wu ZT, et al. Acta Pharmacol Sin. 2014 Sep;35(9):1188-98; settings: ref Wu ZT, et al. Acta Pharmacol Sin. 2014 Sep;35(9):1188-98, read-out: IC50, cellular response via inhibition of mTORC1 and induction of ER stress; cited from earlier work
MDAMB231 = system: MDAMB231; parameters: method as in Wu ZT, et al. Acta Pharmacol Sin. 2014 Sep;35(9):1188-98; settings: ref Wu ZT, et al. Acta Pharmacol Sin. 2014 Sep;35(9):1188-98, read-out: IC50, cellular response via inhibition of mTORC1 and induction of ER stress; cited from earlier work
cytochrome P450 1A1 = system: cytochrome P450 1A1; parameters: method as in Jo SP, Kim JK, Lim YH. Planta Med. 2014 Aug;80(13):1067-71; settings: mechanism-based, selective inactivator; ref Jo SP, Kim JK, Lim YH. Planta Med. 2014 Aug;80(13):1067-71; read-out: IC50, cytochrome P450 1A1 inactivation; cited from earlier work
HepG2 = system: HepG2; parameters: method as in Jo SP, Kim JK, Lim YH. Planta Med. 2014 Aug;80(13):1067-71; settings: HepG2 cancer cell line; ref Jo SP, Kim JK, Lim YH. Planta Med. 2014 Aug;80(13):1067-71; read-out: IC50, proliferation of HepG2; cited from earlier work
HL-60R = system: HL-60R; parameters: method as in Jo SP, Kim JK, Lim YH. Planta Med. 2014 Aug;80(13):1067-71; settings: HL-60R cancer cell line; ref Jo SP, Kim JK, Lim YH. Planta Med. 2014 Aug;80(13):1067-71; read-out: IC50, proliferation of HL-60R; cited from earlier work

For O=C(OC[C@H]1OC(OC(=O)c2cc(O)c(O)c(O)c2)[C@H](OC(=O)c2cc(O)c(O)c(O)c2)[C@@H](OC(=O)c2cc(O)c(O)c(O)c2)[C@@H]1OC(=O)c1cc(O)c(O)c(O)c1)c1cc(O)c(O)c(O)c1 (stereo partly drawn) [1,2,3,4,6-O-Pentagalloylglucose], the “reduction of the HBsAg level” value (hepatitis B virus (HBV)) is given as 25%.

For CC(C)=CCc1cc2ccc(=O)oc2cc1O [7-demethylsuberosin], the IC50 (PGE2 production) is given as 9.42 µM.

In the case of C[C@@H]1OC(O[C@@H]2[C@@H](O)[C@H](OCCc3ccc(O)c(O)c3)O[C@H](CO[C@@H]3OC[C@@H](O)[C@H](O)[C@H]3O)[C@H]2OC(=O)/C=C/c2ccc(O)c(O)c2)[C@H](O)[C@H](O)[C@H]1O (stereo partly drawn) [Arenarioside], the GI50 (B16F10 cell) is listed as 10 to 16 µM.

For C/C=C/C#CC#C/C=C/c1ccco1 [Atractylodin], the LD50 (T. castaneum adults [1]) is listed as 1.83 µg/cm, the IC50 (lipase) is listed as 39.1 µM and the repellency (T. castaneum adults [2]) is listed as > 90%.

For CC(C)=CCC/C(C)=C/COc1ccc2ccc(=O)oc2c1 [Auraptene], the IC50 (β-secretase (BACE1)) is given as 345 µM.

For CC(C)c1cc2c(c(O)c1O)[C@@]13CCCC(C)(C)[C@@H]1C[C@@H]2OC3=O [Carnosol], the EC50 (TRPA1) is given as 12.5 µM.

For C[C@H]1COC2=C1C(=O)C(=O)c1c2ccc2c1CCCC2(C)C [Cryptotanshinone], the “inhibition of STAT5” value (STAT5) is given as “no inhibition”, the “inhibition of STAT1” value (STAT1) is given as “no inhibition” and the IC50 (STAT3) is given as 4.6 µM.

In the case of Oc1ccc(OC2CCCCO2)cc1 (stereo not drawn) [Deoxyarbutin], the IC50 (tyrosinase) is given as 0.05 µM.

For CC1OC(OC2C(=O)c3c(O)cc(O)cc3OC2c2ccc(O)cc2)C(O)C(O)C1O (stereo not drawn) [Engeletin], the “inhibition of PGE2 release, IC5” value (PGE2 release) is listed as 19.6 µg/mL and the IC50 (aldose reductase) is listed as 1.16 µM.

In the case of C[C@]1(OC(=O)/C=C/c2ccccc2)C[C@@H](O)[C@]2(O)C=CO[C@@H](O[C@@H]3O[C@H](CO)[C@@H](O)[C@H](O)[C@H]3O)[C@@H]21 [Harpagoside], the “inhibition of seed germination” value (seed germination) is listed as 1. Harpagoside has anti-inflammatory activity. 2. Harpagoside at 3 mM concentration, shows moderate inhibition of seed germination. 3. Harpagoside can inhibit lipopolysaccharide-induced mRNA levels and protein expression of cyclooxygenase-2 and inducible nitric oxide in HepG2 cells.

For O=C1Nc2ccccc2/C1=C1/Nc2ccccc2C1=O [Indirubin], the IC50 (GSK-3β) is listed as ~0.6 µM and the IC50 (cyclin-dependent kinases) is listed as ~5 µM.

In the case of C=C(C)[C@@H]1CC[C@]2(C)CC[C@]3(C)[C@H](CC[C@@H]4[C@@]5(C)CCC(=O)C(C)(C)[C@@H]5CC[C@]43C)[C@@H]12 [LUPENONE], the IC50 (PTP1B) is given as 15.1 µM.

For COc1cc2oc(-c3ccccc3)cc(=O)c2c(O)c1OC [MOSLOFLAVONE], the IC50 (IL-1β) is listed as 7.8 µM and the IC50 (TNF-α) is listed as 0.71 µM.

In the case of O=c1c(O)c(-c2ccc(O)cc2O)oc2cc(O)cc(O)c12 [Morin], the IC50 (fatty acid synthase) is listed as 2.33 µM.

For COc1cc2oc(-c3ccccc3)cc(=O)c2c(O)c1O [Negletein], the IC50 [3] is listed as 3.89 µM.

For COc1cc(O)c2c(c1)C(=O)c1cc(C)cc(O)c1C2=O [Rheochrysidin], the IC50 [4] is listed as 38.5 µM and the Kd [5] is listed as 26 µM.

For C[C@H]1CC[C@@]2(OC1)O[C@H]1C[C@H]3[C@@H]4CC[C@@H]5C[C@@H](O[C@@H]6O[C@H](CO)[C@H](O)[C@H](O)[C@H]6O[C@@H]6O[C@H](CO)[C@@H](O)[C@H](O)[C@H]6O)CC[C@]5(C)[C@H]4CC[C@]3(C)[C@H]1[C@@H]2C [Timosaponin AIII], the IC50 (HeLa cells) is given as 10 µM, the IC50 (BT474 cells) is given as 2.5 µM and the IC50 (MDAMB231) is given as 6 µM.

For Rhapontigenin, the IC50 (cytochrome P450 1A1) is given as 0.4 µM, the IC50 (HepG2) is given as 48 µM and the IC50 (HL-60R) is given as 48 µM.
